Test results reported in patent publication US11504399B2, “Combination therapy for a stable and long term engraftment using specific protocols for T/B cell depletion” (Yeda Research and Development Co. Ltd., priority 2011, dated 2022).
Read-outs that look alike come from different tables or passages of the source.

Legend:
[1] = tested on: allogeneic recipients (C3H/Hen) of Balb/c-Nude BM cells; conditions: for donor type chimerism expressed: regular dose 5×10^6 T cell depleted BM, TCD, monohydrate
Text: Mice used in these studies were 6-12 week old female mice. Balb/c-Nude (H-2d) and C3H/Hen (H-2k) were purchased from Harlan Israel (Rehovot, Israel). All mice were kept in small cages (5 animals in each cage) and fed sterile food and acid water. These studies were approved by the Weizmann Institute of Science, Institutional Animal Care and Use Committee.
(§1) Low (5×10^6) and high dose (25×10^6) Balb/c-Nude BM cells (providing a source of BM depleted of T cells) were transplanted into allogeneic recipients (C3H/Hen) on day 0 following in-vivo T cell debulking (TCD) with anti-CD4 (clone GK1.5) and anti-CD8 (clone 53.6.72) antibodies (300 μg each; Bio X Cell, NH, USA) delivered on day −6, and exposure to 2.0 Gy total body irradiation (TBI) on day −1. High dose Cyclophosphamide (CY, 100 mg/kg, Baxter Oncology, Germany) was administered on days +3 and +4 post transplant and donor type chimerism was evaluated 35 and 95 days post transplant using fluorescein anti-host and donor H-2 antibodies (e.g. FlTC labeled anti-H-2D^d antibody specific for donor type cells and PE labeled anti-H-2K^k antibody specific for host type cells).
Recipient mice (C3H/Hen) were treated with a conditioning protocol prior to transplantation of a T cell depleted bone marrow transplant. Specifically, mice were in-vivo treated with T cell debulking (TCD) using anti-CD4 and anti-CD8 antibodies delivered on day −6 and by exposure to 2.0 Gy total body irradiation (TBI) on day −1. Next, low (5×10^6) or high dose (25×10^6) Balb/c-Nude BM cells (providing a source of BM depleted of T cells, as Nude mice have miniscule numbers of mature T cells) were transplanted into allogeneic recipients (C3H/Hen) on day 0. High dose cyclophosphamide (CY, 100 mg/kg) was administered on days +3 and +4 post transplant. Evaluation of bone marrow cell engraftment was evaluated by donor type chimerism at 35 and 95 days post transplant.
as §1, with “High” for “Low (5×10^6) and high”, “different doses of irradiation ranging from 1 to 3.5” for “2.0”, “TBI” for “total body irradiation (TBI)”, “30” for “35 and 95”
High dose Cyclophosphamide (CY) was administered on days +3 and +4 post transplant and donor type chimerism was evaluated at 30 days post transplant.
as §1, with “High dose” for “Low (5×10^6) and high dose”, “−1. Different doses of” for “−1. High dose”, “mg/kg, 125 mg/kg or 150 mg/kg,” for “mg/kg,”, “Germany) were” for “Germany) was”, “evaluated 30” for “evaluated 35 and 95”

[2] = tested on: C3H/Hen recipient mice with Balb/c and C57BL/6 skin grafts
Description: Donor (Balb/c) and 3rd party (C57BL/6) skin grafts were transplanted to the mixed chimeric recipients as described above [i.e. to those mice which were previously transplanted with mega dose (25×10^6) T cell depleted BM and were treated with high dose CY] and to the recipient mice that were inoculated with a regular (5×10^6) T cell depleted BM cell dose and were treated with high dose CY.
Tolerance induction was measured by transplantation of donor (Balb/c) and 3rd party (C57BL/6) skin grafts to the mixed chimeric recipients that were transplanted with mega dose (25×10^6) T cell depleted BM and were treated with high dose CY (as described above), in comparison to the recipients that were inoculated with a regular (5×10^6) T cell depleted BM cell dose (as described above).

SMILES: O.O=P1(N(CCCl)CCCl)NCCCO1 (stereo not drawn) [CY, 2-[bis(2-chloroethyl)amino]tetrahydro-2H-1,3,2-oxazaphosphorine 2-oxide monohydrate]
- mixed chimerism ([1]; 5×10^6 T cell depleted BM and CY, 180 and 225 days post transplant): did not exhibit mixed chimerism
- percentage of chimeric mice ([1]; 25×10^6 BM, 1.0 Gy TBI, CY 100 mg/kg days +3 and +4, 30 days post transplant (5/6)): 83%
- percentage of chimeric mice ([1]; 25×10^6 BM, 2 Gy TBI, CY 100 mg/kg days +3 and +4, 30 days post transplant (13/15)): 87%
- chimeric recipient mice ([1]; 25×10^6 BM, 2.5, 3 or 3.5 Gy TBI, CY 100 mg/kg days +3 and +4, 30 days post transplant): 6/6
- effect of depletion of CD8+ cells from the BM preparation on level of chimerism ([1]; 25×10^6 CD8 depleted vs non-depleted Balb/c-Nude BM, 2 Gy TBI, CY 100 mg/kg days +3 and +4, 30 days): did not have any adverse impact
- number of donor type chimeric recipients and level of donor chimerism ([1]; 25×10^6 T cell depleted BM and CY, follow-up 180 and 225 days post transplant): remained unchanged
- mice with durable mix chimerism ([1]; 25×10^6 T cell depleted BM, TCD day −6, 2 Gy TBI day −1, CY 100 mg/kg days +3 and +4, day 35 and day 95): 4 out of 7
- effect of increasing CY dose on chimerism ([1]; CY 125 mg/kg or 150 mg/kg compared to 100 mg/kg, 25×10^6 BM, 2 Gy TBI, 30 days): did not provide a significant enhancement of chimerism
- donor type chimerism expressed ([1]; 2 Gy TBI, CY 100 mg/kg days +3 and +4, day 35 and day 95, listed as cyclophosphamide): none
- donor type chimerism expressed ([1]; 2 Gy TBI, CY 100 mg/kg days +3 and +4, day 35 and day 95): did not exhibit donor type chimerism
- skin graft outcome ([2]; 5×10^6 T cell depleted BM cells and CY): rejected both the donor and 3rd party skin grafts
- chimeric mice that accepted the donor graft and rejected the 3rd party skin grafts ([2]; 25×10^6 T cell depleted BM, high dose CY days +3 and +4): three out of 4
